Measured values reported in PMC10763615, “Identification and engineering of potent cyclic peptides with selective or promiscuous binding through biochemical profiling and bioinformatic data analysis” (RSC Chemical Biology, 2023).
Like-named read-outs stand apart in the source and are kept apart here.

Key:
FGF-R4 ECD [1] = target: T1, FGF-R4 ECD (Homo sapiens, UniProt P22455); experiment: multi-concentration BLI of purified peptides; format: binding
T1 construct: DNA constructs for the extracellular domain (ECD) of human FGF-; HPC4 (C); made in house; host or cells: HEK 293-6E
T1 sequence (P22455 22-369 limits assumed): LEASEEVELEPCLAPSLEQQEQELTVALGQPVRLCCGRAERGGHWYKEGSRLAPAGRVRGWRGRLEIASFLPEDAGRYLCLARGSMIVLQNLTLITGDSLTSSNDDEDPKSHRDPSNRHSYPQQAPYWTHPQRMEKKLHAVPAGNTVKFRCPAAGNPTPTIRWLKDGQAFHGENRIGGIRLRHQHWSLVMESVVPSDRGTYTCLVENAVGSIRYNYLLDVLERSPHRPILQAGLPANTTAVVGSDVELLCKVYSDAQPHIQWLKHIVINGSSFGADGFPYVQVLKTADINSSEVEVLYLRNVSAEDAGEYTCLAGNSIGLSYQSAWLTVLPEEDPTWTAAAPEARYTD
Method: (§1) KD affinity binding measurements were obtained by biolayer interferometry (BLI) instruments (Fortebio Octet HTX, or Sartorius Octet RH16 using either 8 or 16 channel mode.
(§2) For single concentration binding experiments, 50 μM peptide stocks in folding buffer were diluted 1:50 in mRNA display selection buffer (PBS pH7.4 supplemented with 0.05% Tween-20 and 0.01% BSA) in either a 96 well black plate, or a 384 well tilted bottom microplate (ForteBio). Biotinylated FGF-R protein was loaded onto Streptavidin-functionalised biosensors (ForteBio) and immersed into ~1 μM peptide to obtain association kinetics curves. Dissociation kinetics curves were obtained by subsequent immersion of ligand-associated loaded sensors into a 1:50 dilution of folding buffer in mRNA display selection buffer. Fitted KD data was adjusted for concentration as determined by UPLC-CAD.
(§3) For accurate multi-concentration KD determination, dilution series of each peptide were made, and association and dissociation kinetics curves were obtained as above for each concentration to fit a multi-point KD binding model. Data collection and analysis was performed using the Octet Instrument Control […]
(§4) concentration assay kinetics curves shown in supplementary Figure S 19-24.

FGF-R3C ECD [2] = target: T2, FGF-R3C ECD (Homo sapiens, UniProt P22607); experiment: biochemical
T2 sequence (P22607 23-375 limits assumed): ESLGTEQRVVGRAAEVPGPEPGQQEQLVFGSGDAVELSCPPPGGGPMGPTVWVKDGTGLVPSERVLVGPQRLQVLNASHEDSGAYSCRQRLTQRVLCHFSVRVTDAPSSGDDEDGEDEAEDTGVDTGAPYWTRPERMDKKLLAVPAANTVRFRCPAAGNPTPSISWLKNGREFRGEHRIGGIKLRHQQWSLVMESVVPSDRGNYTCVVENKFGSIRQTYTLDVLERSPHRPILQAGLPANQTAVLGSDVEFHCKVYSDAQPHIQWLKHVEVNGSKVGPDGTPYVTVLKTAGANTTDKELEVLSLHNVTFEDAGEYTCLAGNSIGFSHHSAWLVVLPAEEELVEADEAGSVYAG
Method: as §1, §2, §3, §4

FGF-R1C ECD [3] = target: T3, FGF-R1C ECD (Homo sapiens, UniProt P11362); experiment: biochemical
T3 sequence (P11362 22-376 limits assumed): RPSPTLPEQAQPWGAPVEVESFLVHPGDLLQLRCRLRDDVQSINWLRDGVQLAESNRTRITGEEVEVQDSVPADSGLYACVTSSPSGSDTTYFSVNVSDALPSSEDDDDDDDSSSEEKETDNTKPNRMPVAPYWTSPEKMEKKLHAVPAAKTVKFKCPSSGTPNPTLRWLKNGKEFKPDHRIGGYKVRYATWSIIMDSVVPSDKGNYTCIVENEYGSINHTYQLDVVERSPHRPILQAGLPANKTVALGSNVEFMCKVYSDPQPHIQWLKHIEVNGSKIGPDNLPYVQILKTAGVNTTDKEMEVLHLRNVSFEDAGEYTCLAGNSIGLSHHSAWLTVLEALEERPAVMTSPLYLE
Method: as §1, §2, §3, §4

FGF-R4 ECD [4] = target: T1, FGF-R4 ECD; experiment: single concentration BLI of crude peptides; format: binding; settings: read-out: KD (4)
Procedure, shortened: (§5)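 Biotinylated FGF-R ECD on streptavidin biosensors was dipped into ~1 μM crude peptide in PBS pH7.4 with 0.05% Tween-20 and 0.01% BSA for association, then into buffer for dissociation, and followed by BLI. Fitted KD values were adjusted for peptide concentration measured by UPLC-CAD.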

FGF-R3C ECD [5] = target: T2, FGF-R3C ECD; experiment: biochemical; format: binding; design: DNA constructs for the extracellular domain (ECD) of human FGF-; HPC4 (C); made in house; host or cells: HEK 293-6E
Procedure, shortened: as §5

FGF-R1C ECD [6] = target: T3, FGF-R1C ECD; experiment: biochemical; format: binding; design: DNA constructs for the extracellular domain (ECD) of human FGF-; HPC4 (C); made in house; host or cells: HEK 293-6E
Procedure, shortened: as §5

[7] = purified trimer-18 library peptides
[8] = crude T18 selection 1 (1:1:1) peptides, single concentration BLI (Table S4)

SMILES	Kd (FGF-R4 ECD [1]; [7])	Kd (FGF-R3C ECD [2])	Kd (FGF-R1C ECD [3])	Kd (FGF-R4 ECD [4]; [8])	Kd (FGF-R3C ECD [5])	Kd (FGF-R1C ECD [6])	Kd (FGF-R3C ECD [2]; read-out: R3C KD, purified trimer-18 library peptides, multi-concentration BLI)	Kd (FGF-R1C ECD [3]; read-out: R1C KD, purified trimer-18 library peptides, multi-concentration BLI)	Kd (FGF-R3C ECD [5]; read-out: KD(3C))	Kd (FGF-R1C ECD [6]; read-out: KD (1C))	Kd (FGF-R4 ECD [1]; purified NNK library peptides)	Kd (FGF-R4 ECD [4]; crude NNK peptides, single concentration BLI (Table S3))
CSCC[C@H](NC(C)=O)C(=O)N[C@H]1CSSC[C@@H](C(=O)NCC(=O)N[C@@H](CO)C(=O)NCC(=O)N[C@@H](CO)C(=O)N[C@@H](CC(=O)O)C(=O)N[C@@H](Cc2ccc(O)cc2)C(=O)N[C@@H](CCCCN)C(=O)N[C@@H](CC(=O)O)C(=O)N[C@@H](CC(=O)O)C(=O)N[C@@H](CC(=O)O)C(=O)N[C@@H](CC(=O)O)C(=O)N[C@@H](CCCCN)C(N)=O)NC(=O)[C@H](Cc2c[nH]cn2)NC(=O)[C@H](CCCNC(=N)N)NC(=O)[C@H](CC(C)C)NC(=O)[C@H](CC(=O)O)NC(=O)[C@H](CCCCN)NC(=O)[C@H](Cc2ccc(O)cc2)NC(=O)[C@H](CC(C)C)NC(=O)[C@H](CC(C)C)NC(=O)[C@H](C(C)C)NC(=O)[C@H](CC(N)=O)NC1=O [4.17]	> 1000 nM	> 1000 nM	> 1000 nM	> 10000 nM	> 10000 nM	> 10000 nM	–	–	–	–	–	–
CSCC[C@H](NC(C)=O)C(=O)N[C@H]1CSSC[C@@H](C(=O)NCC(=O)N[C@@H](CO)C(=O)NCC(=O)N[C@@H](CO)C(=O)N[C@@H](CC(=O)O)C(=O)N[C@@H](Cc2ccc(O)cc2)C(=O)N[C@@H](CCCCN)C(=O)N[C@@H](CC(=O)O)C(=O)N[C@@H](CC(=O)O)C(=O)N[C@@H](CC(=O)O)C(=O)N[C@@H](CC(=O)O)C(=O)N[C@@H](CCCCN)C(N)=O)NC(=O)[C@H](Cc2c[nH]cn2)NC(=O)[C@H](CCCNC(=N)N)NC(=O)[C@H](CC(C)C)NC(=O)[C@H](C(C)C)NC(=O)[C@H](CCCCN)NC(=O)[C@H](Cc2ccc(O)cc2)NC(=O)[C@H](CC(C)C)NC(=O)[C@H](CC(C)C)NC(=O)[C@H](C(C)C)NC(=O)[C@H](CC(N)=O)NC1=O [4.11]	543 nM	115 nM	> 1000 nM	11 nM	> 10000 nM	> 10000 nM	–	–	–	–	–	–
CSCC[C@H](NC(C)=O)C(=O)N[C@H]1CSSC[C@@H](C(=O)NCC(=O)N[C@@H](CO)C(=O)NCC(=O)N[C@@H](CO)C(=O)N[C@@H](CCC(=O)O)C(=O)N[C@@H](CCC(=O)O)C(=O)NCC(=O)N[C@@H](CO)C(=O)NCC(=O)N[C@@H](CO)C(=O)N[C@@H](CC(=O)O)C(=O)N[C@@H](Cc2ccc(O)cc2)C(=O)N[C@@H](CCCCN)C(=O)N[C@@H](CC(=O)O)C(=O)N[C@@H](CC(=O)O)C(=O)N[C@@H](CC(=O)O)C(=O)N[C@@H](CC(=O)O)C(=O)N[C@@H](CCCCN)C(N)=O)NC(=O)[C@H](CCCCN)NC(=O)[C@H](CCCCN)NC(=O)[C@H](Cc2c[nH]c3ccccc23)NC(=O)[C@H](CC(C)C)NC(=O)[C@H](CC(C)C)NC(=O)[C@H](Cc2ccc(O)cc2)NC(=O)[C@H](Cc2ccc(O)cc2)NC(=O)[C@H](Cc2ccc(O)cc2)NC(=O)[C@H](CC(C)C)NC(=O)[C@H](Cc2c[nH]cn2)NC(=O)[C@H](CCCCN)NC1=O [4.10]	2 nM	–	–	1 nM	–	–	519 nM	> 1000 nM	928 nM	1030 nM	–	–
CSCC[C@H](NC(C)=O)C(=O)N[C@H]1CSSC[C@@H](C(=O)NCC(=O)N[C@@H](CO)C(=O)NCC(=O)N[C@@H](CO)C(=O)N[C@@H](CC(=O)O)C(=O)N[C@@H](Cc2ccc(O)cc2)C(=O)N[C@@H](CCCCN)C(=O)N[C@@H](CC(=O)O)C(=O)N[C@@H](CC(=O)O)C(=O)N[C@@H](CC(=O)O)C(=O)N[C@@H](CC(=O)O)C(=O)N[C@@H](CCCCN)C(N)=O)NC(=O)[C@H](CCCNC(=N)N)NC(=O)[C@H](CC(C)C)NC(=O)[C@H](CCCCN)NC(=O)[C@H]([C@@H](C)O)NC(=O)[C@H](C(C)C)NC(=O)[C@H](CCCCN)NC(=O)[C@H](Cc2ccc(O)cc2)NC(=O)[C@H](Cc2c[nH]c3ccccc23)NC(=O)[C@H]([C@@H](C)O)NC(=O)[C@H](C(C)C)NC1=O [4.4]	–	> 1000 nM	> 1000 nM	–	> 10000 nM	> 10000 nM	–	–	–	–	> 1000 nM	57 nM
CSCC[C@H](NC(C)=O)C(=O)N[C@H]1CSSC[C@@H](C(=O)NCC(=O)N[C@@H](CO)C(=O)NCC(=O)N[C@@H](CO)C(=O)N[C@@H](CC(=O)O)C(=O)N[C@@H](Cc2ccc(O)cc2)C(=O)N[C@@H](CCCCN)C(=O)N[C@@H](CC(=O)O)C(=O)N[C@@H](CC(=O)O)C(=O)N[C@@H](CC(=O)O)C(=O)N[C@@H](CC(=O)O)C(=O)N[C@@H](CCCCN)C(N)=O)NC(=O)[C@H](C(C)C)NC(=O)[C@H](Cc2c[nH]c3ccccc23)NC(=O)[C@H](Cc2c[nH]c3ccccc23)NC(=O)[C@H](CC(C)C)NC(=O)[C@H](CCCCN)NC(=O)[C@H](Cc2c[nH]c3ccccc23)NC(=O)[C@H](CCCNC(=N)N)NC(=O)[C@H](Cc2ccc(O)cc2)NC(=O)[C@H](C)NC(=O)[C@H](CC(=O)O)NC(=O)[C@H](CO)NC(=O)[C@H](CCC(=O)O)NC1=O [4.12]	15 nM	> 1000 nM	> 1000 nM	10 nM	> 10000 nM	1570 nM	–	–	–	–	–	–
CSCC[C@H](NC(C)=O)C(=O)N[C@H]1CSSC[C@@H](C(=O)NCC(=O)N[C@@H](CO)C(=O)NCC(=O)N[C@@H](CO)C(=O)N[C@@H](CC(=O)O)C(=O)N[C@@H](Cc2ccc(O)cc2)C(=O)N[C@@H](CCCCN)C(=O)N[C@@H](CC(=O)O)C(=O)N[C@@H](CC(=O)O)C(=O)N[C@@H](CC(=O)O)C(=O)N[C@@H](CC(=O)O)C(=O)N[C@@H](CCCCN)C(N)=O)NC(=O)[C@H](CC(C)C)NC(=O)[C@H](CCC(N)=O)NC(=O)[C@H](Cc2c[nH]c3ccccc23)NC(=O)[C@H](CCCCN)NC(=O)[C@H](CCC(=O)O)NC(=O)[C@H](Cc2c[nH]c3ccccc23)NC(=O)[C@H](CC(N)=O)NC(=O)[C@H](Cc2ccc(O)cc2)NC(=O)[C@H](Cc2ccccc2)NC(=O)[C@H](CCCNC(=N)N)NC(=O)[C@H]([C@@H](C)O)NC(=O)[C@H](Cc2ccc(O)cc2)NC1=O [4.13]	> 1000 nM	> 1000 nM	> 1000 nM	> 10000 nM	> 10000 nM	17 nM	–	–	–	–	–	–
